Consider six compounds from patent publication US11597724B2, “Herbicidally active 3-phenylisoxazoline-5-carboxamides of tetrahydro and dihydrofuran carboxylic acids and esters” (Bayer Aktiengesellschaft, priority 2017, dated 2023).

Assay type in all cases: in vivo
Assay [1] concerns Polygonum convolvulus. As to the kind of experiment: Post-emergence herbicidal activity against POLCO. Conditions: Fallopia convolvulus, 504 h, dosage 320 g/ha, rated about 3 weeks after treatment. On the procedure: (§1) POLCO: Polygonum convolvulus SETVI: Setaria viridis 2. Post-Emergence Herbicidal Action and Crop Plant Compatibility Seeds of monocotyledonous and dicotyledonous weeds and crop plants are placed in sandy loam in plastic or wood-fiber pots, covered with soil and cultivated in a greenhouse under controlled growth conditions. 2 to 3 weeks after sowing, the test plants are treated at the one-leaf stage. The compounds of the invention, formulated in the form of wettable powders (WP) or as emulsion concentrates (EC), are then sprayed onto the green parts of the plants as aqueous suspension or emulsion with addition of 0.5% additive at a water application rate of 600 l/ha (converted). After the test plants had been kept in the greenhouse under optimum growth conditions for about 3 weeks, the activity of the preparations is rated visually in comparison to untreated controls. For example, 100% activity=the plants have died, 0% activity=like control plants.

Assay [2] has as its system Alopecurus myosuroides. As to the kind of experiment: Post-emergence herbicidal activity against ALOMY. Conditions: Alopecurus myosuroides, 504 h, dosage 320 g/ha, rated about 3 weeks after treatment. On the procedure: as §1, with “ABUTH: Abutilon theophrasti ALOMY: Alopecurus myosuroides” for “POLCO: Polygonum convolvulus SETVI: Setaria viridis”
In assay [3] the test system is Avena fatua. As to the kind of experiment: Post-emergence herbicidal activity against AVEFA. Conditions: Avena fatua, 504 h, dosage 320 g/ha, rated about 3 weeks after treatment. On the procedure:
as §1, with “AMARE: Amaranthus retroflexus AVEFA: Avena fatua” for “POLCO: Polygonum convolvulus SETVI: Setaria viridis”

For assay [4], the system named is Veronica persica. The experiment in a line: Post-emergence herbicidal activity against VERPE. Conditions: Veronica persica, 504 h, dosage 320 g/ha. On the procedure: as §1, with “STEME: Stellaria media VERPE: Veronica persica” for “POLCO: Polygonum convolvulus SETVI: Setaria viridis”
Assay [5] has as its system Echinochloa crus-galli. The experiment in a line: Post-emergence herbicidal activity against ECHCG. Conditions: Echinochloa crus-galli, 504 h, dosage 320 g/ha, rated about 3 weeks after treatment. On the procedure: as §1, with “ECHCG: Echinochloa crus-galli HORMU: Hordeum murinum” for “POLCO: Polygonum convolvulus SETVI: Setaria viridis”
In assay [6] the test system is Setaria viridis. As to the kind of experiment: Post-emergence herbicidal activity against SETVI. The settings on record: Setaria viridis, 504 h, dosage 320 g/ha, rated about 3 weeks after treatment. On the procedure: as §1
For assay [7], the system named is Pharbitis purpurea. As to the kind of experiment: Post-emergence herbicidal activity against PHBPU. The settings on record: Ipomoea purpurea, 504 h, dosage 320 g/ha, rated about 3 weeks after treatment. On the procedure: as §1, with “LOLRI: Lolium rigidum PHBPU: Pharbitis purpurea” for “POLCO: Polygonum convolvulus SETVI: Setaria viridis”
The nature of assay [8]: Post-emergence treatment, summary over harmful plants. The settings on record: 504 h, application rate of 0.32 kg of active substance or less per hectare, read-out: herbicidal action, post-emergence treatment (very good herbicidal activity). On the procedure: 2. Post-Emergence Herbicidal Action and Crop Plant Compatibility
as §1, with “Seeds” for “POLCO: Polygonum convolvulus SETVI: Setaria viridis 2. Post-Emergence Herbicidal Action and Crop Plant Compatibility Seeds”
As shown by the results, compounds according to the invention such as, for example, the compounds No. I-35 and other compounds from the tables (for example I-28, I-38, I-01, I-19, I-36, I-29, I-32, I-11, I-12, I-37, I-06, I-09, I-33, I-34, I-13, I-04, I-26, I-21, I-30, I-05, I-03, I-20, I-27, I-14, I-10, I-23, I-07, I-25, I-02, I-08, I-24, I-41, I-42, I-43, I-44, I-46, I-49, I-54, I-55, I-56) have, when used for post-emergence treatment, very good herbicidal activity (80% to 100% herbicidal action) against harmful plants such as Abutilon theophrasti, Alopecurus myosuroides, Amaranthus retroflexus, Avena fatua, Echinochloa crus-galli, Hordeum murinum, Lolium rigidum, Pharbitis purpurea, Polygonum convolvulus, Setaria viridis, Stellaria media, Veronica persica and Viola tricolor at an application rate of 0.32 kg of active substance or less per hectare.

For assay [9], the system named is Amaranthus retroflexus. As to the kind of experiment: Post-emergence herbicidal activity against AMARE. The settings on record: Amaranthus retroflexus, 504 h, dosage 320 g/ha, rated about 3 weeks after treatment. The protocol:
as §1, with “AMARE: Amaranthus retroflexus AVEFA: Avena fatua” for “POLCO: Polygonum convolvulus SETVI: Setaria viridis”

In assay [10] the test system is Stellaria media. The experiment in a line: Post-emergence herbicidal activity against STEME. The settings on record: Stellaria media, 504 h, dosage 320 g/ha, rated about 3 weeks after treatment. On the procedure: as §1, with “STEME: Stellaria media VERPE: Veronica persica” for “POLCO: Polygonum convolvulus SETVI: Setaria viridis”
Assay [11] deals with Hordeum murinum. As to the kind of experiment: Post-emergence herbicidal activity against HORMU. The settings on record: Hordeum murinum, 504 h, dosage 320 g/ha. On the procedure:
as §1, with “ECHCG: Echinochloa crus-galli HORMU: Hordeum murinum” for “POLCO: Polygonum convolvulus SETVI: Setaria viridis”

Consider `C=C[C@@]1(C(=O)N[C@H]2CO[C@@H](C(=O)OC)C2)CC(c2cc(F)cc(F)c2)=NO1` (mixture of isomers) [I-22, methyl cis-4-[[(5R)-3-(3,5-difluorophenyl)-5-vinyl-4H-isoxazole-5-carbonyl]amino]tetrahydrofuran-2-carboxylate], for which, in [1], the pest or weed control at 320 g/ha stood at 90%.
As to `CCOC(=O)C1(NC(=O)C2(C)CC(c3cc(F)cc(F)c3)=NO2)CCOC1` (stereo not drawn) [I-18, ethyl 3-[[3-(3,5-difluorophenyl)-5-methyl-4H-isoxazole-5-carbonyl]amino]tetrahydrofuran-3-carboxylate], the pest or weed control at 320 g/ha is 80% in assay [2], 100% in assay [3] and 80% in assay [4].
With `COC(=O)C1(NC(=O)C2(C)CC(c3cc(F)cc(F)c3)=NO2)CCOC1` (stereo not drawn) [I-17, methyl 3-[[3-(3,5-difluorophenyl)-5-methyl-4H-isoxazole-5-carbonyl]amino]tetrahydrofuran-3-carboxylate], the pest or weed control at 320 g/ha amounted to 80% in [3] and 90% in assay [1].
Turning to `COC(=O)[C@H]1C[C@@H](NC(=O)C2(C)CC(c3cccc(F)c3)=NO2)CO1` (relative stereo) [I-13, methyl cis-4-[[3-(3-fluorophenyl)-5-methyl-4H-isoxazole-5-carbonyl]amino]tetrahydrofuran-2-carboxylate], the pest or weed control at 320 g/ha is 90% in assay [2]; 90% in [3]; 80% in assay [5]; 80% in assay [6]; 90% in [7]; 80% in assay [1]. Besides, the pest or weed control at 320 g/ha in [4] is 80%; in assay [8], 80 to 100%.
For the compound `COC(=O)[C@]1(OC)C[C@H](NC(=O)C2(C)CC(c3cccc(F)c3)=NO2)CO1` (stereo partly drawn) [I-40, methyl (2S,4S)-4-[[3-(3-fluorophenyl)-5-methyl-4H-isoxazole-5-carbonyl]amino]-2-methoxytetrahydrofuran-2-carboxylate], the pest or weed control at 320 g/ha in [2] was determined as 90%; in assay [5] it was 80%; in assay [6] it was 80%; in [9], 80%; in [7], 90%; in assay [1] it was 80%. The pest or weed control at 320 g/ha in [10] turned out to be 80%; in assay [4], 80%; in assay [11], 90%.
With `CC1(C(=O)N[C@H]2CO[C@@H](C(=O)O)C2)CC(c2cccc(F)c2)=NO1` (relative stereo) [I-20, cis-4-[[3-(3-fluorophenyl)-5-methyl-4H-isoxazole-5-carbonyl]amino]tetrahydrofuran-2-carboxylic acid], the pest or weed control at 320 g/ha was 90% in assay [2]; 90% in assay [3]; 80% in assay [5]; 80% in assay [6]; 80% in [9]; 80% in [7]. Besides, the pest or weed control at 320 g/ha in [1] was 80%; in assay [10] it was 80%; in assay [4] it was 90%; in [8], 80 to 100%.
